From US20220380378A1 (ESSA Pharma, Inc., priority 2021, published 2022) come the findings set out here.

The target in this test is T1, androgen receptor (AR) (Homo sapiens, UniProt P10275, T878A).
T1 sequence (P10275 1-920 T878A): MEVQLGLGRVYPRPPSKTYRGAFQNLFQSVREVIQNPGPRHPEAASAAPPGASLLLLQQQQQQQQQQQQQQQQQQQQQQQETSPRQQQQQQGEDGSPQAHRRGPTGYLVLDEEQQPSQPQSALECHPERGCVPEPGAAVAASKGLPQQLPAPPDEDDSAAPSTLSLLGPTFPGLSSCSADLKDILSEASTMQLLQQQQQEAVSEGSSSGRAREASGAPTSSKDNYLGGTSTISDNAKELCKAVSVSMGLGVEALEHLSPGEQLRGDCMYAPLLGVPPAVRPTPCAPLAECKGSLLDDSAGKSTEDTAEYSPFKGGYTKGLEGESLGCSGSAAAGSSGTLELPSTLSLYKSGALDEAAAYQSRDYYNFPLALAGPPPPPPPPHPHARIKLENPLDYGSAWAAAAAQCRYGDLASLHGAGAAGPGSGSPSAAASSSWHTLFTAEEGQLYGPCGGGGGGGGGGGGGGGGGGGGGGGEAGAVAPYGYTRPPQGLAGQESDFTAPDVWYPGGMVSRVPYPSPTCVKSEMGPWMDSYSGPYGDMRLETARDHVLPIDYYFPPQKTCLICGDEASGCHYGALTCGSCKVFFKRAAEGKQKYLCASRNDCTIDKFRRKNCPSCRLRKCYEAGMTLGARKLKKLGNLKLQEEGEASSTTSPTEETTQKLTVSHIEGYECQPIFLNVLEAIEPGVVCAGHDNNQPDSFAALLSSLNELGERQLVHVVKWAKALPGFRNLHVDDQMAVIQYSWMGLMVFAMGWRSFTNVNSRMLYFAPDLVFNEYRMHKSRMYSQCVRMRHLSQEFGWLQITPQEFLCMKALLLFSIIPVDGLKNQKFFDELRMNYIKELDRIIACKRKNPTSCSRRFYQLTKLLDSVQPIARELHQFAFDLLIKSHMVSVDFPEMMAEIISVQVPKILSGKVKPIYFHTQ
Put plainly: Androgen-induced PSA (6.1 kb)-luciferase reporter assay in LNCaP cells (R1881 1 nM). The format is cell-based. Also noted: endogenous in cells; host or cells: LNCaP. The note with it: 24 h, read-out: PSA-Luc IC50 Range. Here is the method:
The PSA (6.1 kb)-luciferase reporter contains functional AREs (androgen response elements) to which AR binds in response to androgen to induce luciferase activity. LNCaP cells were transiently transfected with the PSA (6.1 kb)-luciferase reporter for 24 h, and then pretreated with vehicle (DMSO) or indicated concentration of representative compounds for one hour prior to the addition of synthetic androgen, R1881 (1 nM). After 24 h of incubation with R1881, the cells were harvested, and relative luciferase activities were determined (FIG. 1). To determine the IC50, treatments were normalized to vehicle control activity induced by R1881 (Table 2).
Luciferase Assay: Cells were lysed using Passive Lysis Buffer (Promega) and then collected into V-bottom 96-well tissue culture plates. Lysates were centrifuged at 4° C. for 5 minutes at 3000 rpm. To measure luminescence of LNCaP cell lysates the Firefly Luciferase Assay System (Promega) was employed, according to manufacturer's protocol. Relative luminescence units (RLU) in cell lysates were detected for 10 seconds using Promega GloMax-Multi Detection Luminometer (Promega). Values were normalized to protein content. GraphPad Prism graphing software was used to calculate IC50 values.
Statistical analyses were performed using GraphPad Prism (Version 6.01 for Windows; La Jolla, Calif., USA). Comparisons between treatment and control groups were compared using Two-Way ANOVA with post-hoc Dunnett's and Tukey's tests. Differences were considered statistically significant at P values less than 0.05.
(In a reporter assay the amount or activity of a reporter protein is the signal.)
For the compound `CS(=O)(=O)Nc1nccc(COc2ccc3c(ccn3-c3cc(Cl)c(OC=C(Cl)Cl)c(C#N)c3)c2)n1` [Compound A128], the half-maximal inhibitory concentration (IC50) (in general, the midpoint of a concentration-inhibition curve) lay within 500 to 2000 nM.
In the case of `CS(=O)(=O)NC12CC(C(=O)Nc3ccc4c(ccn4-c4cc(Cl)c(OCCCl)c(C#N)c4)c3)(C1)C2` [Compound A133], the IC50 was greater than 2000 nM.
Turning to `CS(=O)(=O)NC12CC(NC(=O)c3ccc4c(ccn4-c4cc(Cl)c(OCCCl)c(C#N)c4)c3)(C1)C2` [Compound A134], the IC50 was greater than 2000 nM.
Regarding `CS(=O)(=O)N[C@H]1C[C@@H](COc2ccc3c(ccn3-c3cc(Cl)c(OCCCl)c(C#N)c3)c2)C1` [Compound A136], the IC50 was 500 to 2000 nM.
To `CS(=O)(=O)N1CC(F)(COc2ccc3c(ccn3-c3cc(Cl)c(OCCCl)c(C#N)c3)c2)C1` [Compound A137] belongs 500 to 2000 nM.
Turning to `CS(=O)(=O)NC12CC(COc3ccc4c(-c5cc(Cl)c(OCCCl)c(C#N)c5)csc4c3)(C1)C2` [Compound A138], the IC50 was greater than 2000 nM.
To `Cc1cc2cc(OCC34CC(NS(C)(=O)=O)(C3)C4)ccc2n1-c1cc(Cl)c(OCCCl)c(C#N)c1` [Compound A139] belongs greater than 2000 nM; to `CC(c1cc(Cl)c(OCCCl)c(C#N)c1)n1ccc(-c2ccc3nc(NS(C)(=O)=O)ncc3c2)n1` (stereo not drawn) [Compound A142], greater than 2000 nM; to `CS(=O)(=O)Nc1ncc(Cn2ncc3ccc(-c4cc(Cl)c(OCCCl)c(C#N)c4)cc32)cn1` [Compound A143], greater than 2000 nM.
For the compound `CS(=O)(=O)NC12CC(NCc3ccc4c(ccn4-c4cc(Cl)c(OCCCl)c(C#N)c4)c3)(C1)C2` [Compound A145], the IC50 is 500 to 2000 nM.
For the compound `CS(=O)(=O)NC12CC(CNc3ccc4c(ccn4-c4cc(Cl)c(OCCCl)c(C#N)c4)c3)(C1)C2` [Compound A146], the IC50 lay in the range of 500 to 2000 nM.
On to `CS(=O)(=O)Nc1nccc(COc2ccc3cc(-c4cc(Cl)c(OCCCl)c(C#N)c4)ccc3c2)n1` [Compound A148], for which the IC50 is greater than 2000 nM.
The value for `CC(C)(c1ccc(OCC2CN(S(C)(=O)=O)C2)cc1)c1cc(Cl)c(OCCCl)c(C#N)c1` [Compound A151] was 500 to 2000 nM.
As to `CS(=O)(=O)Nc1ncc2ccc(COc3cccc(-c4cc(Cl)c(OCCCl)c(C#N)c4)c3)cc2n1` [Compound A152], the IC50 is greater than 2000 nM.
With `CS(=O)(=O)Nc1ncc2c(n1)CN(Cc1ccc3c(ccn3-c3cc(Cl)c(OCCCl)c(C#N)c3)c1)CC2` [Compound A153], the IC50 is greater than 2000 nM.
Regarding `CS(=O)(=O)Nc1ncc2c(n1)CCN(Cc1ccc3c(ccn3-c3cc(Cl)c(OCCCl)c(C#N)c3)c1)C2` [Compound A154], the IC50 was greater than 2000 nM.
Take `Cn1cc(-c2cc(Cl)c(OCCCl)c(C#N)c2)c2ccc(OCc3ccnc(NS(C)(=O)=O)n3)cc21` [Compound A157]: the IC50 was 500 to 2000 nM.
On to `CS(=O)(=O)N1CC(O)(COc2ccc3c(ccn3-c3cc(Cl)c(OCCCl)c(C#N)c3)c2)C1` [Compound A158], for which the IC50 fell in the range of 500 to 2000 nM.
To `CC(Oc1ccc2c(ccn2-c2cc(Cl)c(OCCCl)c(C#N)c2)c1)C1CN(S(C)(=O)=O)C1` (stereo not drawn) [Compound A159] belongs 500 to 2000 nM; to `CS(=O)(=O)Nc1ncc(Cn2cc3ccc(-c4cc(Cl)c(OCCCl)c(C#N)c4)cc3n2)cn1` [Compound A160], greater than 2000 nM; to `CS(=O)(=O)Nc1ncc(Cn2cc3c(-c4cc(Cl)c(OCCCl)c(C#N)c4)cccc3n2)cn1` [Compound A161], greater than 2000 nM.
Regarding `CS(=O)(=O)N1CC2(CC(COc3ccc4c(ccn4-c4cc(Cl)c(OCCCl)c(C#N)c4)c3)C2)C1` [Compound A162], the IC50 lay within 500 to 2000 nM.
`CS(=O)(=O)N1CC2(CC(Oc3ccc4c(ccn4-c4cc(Cl)c(OCCCl)c(C#N)c4)c3)C2)C1` [Compound A163]: the IC50 lay within 500 to 2000 nM.
To `CS(=O)(=O)NCc1ccc(-c2ccc3c(ccn3-c3cc(Cl)c(OCCCl)c(C#N)c3)c2)cc1` [Compound A164] belongs greater than 2000 nM.
Take `CC(C)(c1ccc(OCc2ccnc(NS(C)(=O)=O)n2)cc1)c1cnc(N2CC3(CCC3)C2)c(C#N)c1` [Compound A166]: the IC50 is greater than 2000 nM.
The value for `CS(=O)(=O)NC12CC(COc3ccc4c(ccn4-c4cc(Cl)c(OCC(F)(F)F)c(C#N)c4)c3)(C1)C2` [Compound A167] was 500 to 2000 nM.
`Cc1cc(-c2ccc3c(ccn3-c3cc(Cl)c(OCCCl)c(C#N)c3)c2)ccc1CNS(C)(=O)=O` [Compound A168]: the IC50 was less than 500 nM.
Take `CS(=O)(=O)NCC1CN(Cc2ccc3c(ccn3-c3cc(Cl)c(OCCCl)c(C#N)c3)c2)CCO1` (stereo not drawn) [Compound A170]: the IC50 was greater than 2000 nM.
As for `CS(=O)(=O)NC1CC2(C1)CN(Cc1ccc3c(ccn3-c3cc(Cl)c(OCCCl)c(C#N)c3)c1)C2` [Compound A171], the IC50 is greater than 2000 nM.
In the case of `CCC(O)COc1c(Cl)cc(C(C)(C)c2ccc(OCc3ccnc(NS(C)(=O)=O)n3)cc2)cc1C#N` (stereo not drawn) [Compound A174], the IC50 is greater than 2000 nM.
To `CCNc1ncc2cc(-c3ccc(C(C)(C)c4cc(Cl)c(OCCCl)c(C#N)c4)cc3)ccc2n1` [Compound A176] belongs greater than 2000 nM.
The value for `CC(C)(c1ccc(-c2ccc3nc(N)ncc3c2)cc1)c1cc(Cl)c(OCCCl)c(C#N)c1` [Compound A177] was 500 to 2000 nM; that for `CC(C)(c1ccc(OCc2ccnc(NS(C)(=O)=O)n2)cc1)c1cc(Cl)c(OCCCCl)c(C#N)c1` [Compound A181] was 500 to 2000 nM.
Consider `CC(NC12CC(NS(C)(=O)=O)(C1)C2)c1ccc2c(ccn2-c2cc(Cl)c(OCCCl)c(C#N)c2)c1` (stereo not drawn) [Compound A184], for which the IC50 is greater than 2000 nM.
In the case of `CS(=O)(=O)Nc1nccc(COc2ccc3c(ccn3-c3cc(Cl)c(OC4CCC4)c(C#N)c3)c2)n1` [Compound A189], the IC50 fell in the range of 500 to 2000 nM.
Take `CS(=O)(=O)N1CCC(CCOc2ccc3c(ccn3-c3cc(Cl)c(OCCCl)c(C#N)c3)c2)CC1` [Compound A190]: the IC50 was greater than 2000 nM.
For the compound `CC(C)(c1ccc(-c2cnc3nc(NS(C)(=O)=O)ncc3c2)cc1)c1cc(Cl)c(OCCCl)c(C#N)c1` [Compound A192], the IC50 was in the range of 500 to 2000 nM.
On to `CC(C)(c1ccc(-c2cnc3nc(NS(C)(=O)=O)cnc3c2)cc1)c1cc(Cl)c(OCCCl)c(C#N)c1` [Compound A195], for which the IC50 was greater than 2000 nM.
Consider `CC(C)(c1ccc(-c2ccc3nc(NS(C)(=O)=O)nc(N4CCOCC4)c3c2)cc1)c1cc(Cl)c(OCCCl)c(C#N)c1` [Compound A196], for which the IC50 lay in the range of 500 to 2000 nM.
As to `CC(C)(c1ccc(-c2ccc3c(NS(C)(=O)=O)ncnc3c2)cc1)c1cc(Cl)c(OCCCl)c(C#N)c1` [Compound A197], the IC50 is greater than 2000 nM.
Consider `CC(C)(c1ccc(-c2c[nH]c3nc(NS(C)(=O)=O)ncc23)cc1)c1cc(Cl)c(OCCCl)c(C#N)c1` [Compound A198], for which the IC50 fell in the range of 500 to 2000 nM.
Consider `CC(C)(c1ccc(-c2cnc3c(NS(C)(=O)=O)nccc3c2)cc1)c1cc(Cl)c(OCCCl)c(C#N)c1` [Compound A199], for which the IC50 is less than 500 nM.
In the case of `CS(=O)(=O)N1CCC(Oc2ccc3c(ccn3-c3cc(Cl)c(OCCCl)c(C#N)c3)c2)CC1` [Compound A200], the IC50 was 500 to 2000 nM.
As for `CS(=O)(=O)N1CCCC1COc1ccc2c(ccn2-c2cc(Cl)c(OCCCl)c(C#N)c2)c1` (stereo not drawn) [Compound A201], the IC50 was greater than 2000 nM.
`CS(=O)(=O)N1CCCC(Oc2ccc3c(ccn3-c3cc(Cl)c(OCCCl)c(C#N)c3)c2)CC1` (stereo not drawn) [Compound A202]: the IC50 is greater than 2000 nM.
The value for `CC(C)(c1ccc(-c2n[nH]c3nc(NS(C)(=O)=O)ncc23)cc1)c1cc(Cl)c(OCCCl)c(C#N)c1` [Compound A203] was 500 to 2000 nM; that for `CS(=O)(=O)N1CCC[C@@H](COc2ccc3c(ccn3-c3cc(Cl)c(OCCCl)c(C#N)c3)c2)C1` [Compound A204] was greater than 2000 nM; that for `CS(=O)(=O)N1CCO[C@@H](COc2ccc3c(ccn3-c3cc(Cl)c(OCCCl)c(C#N)c3)c2)C1` [Compound A205] was greater than 2000 nM.
